Here are results for 18 molecules from patent US12552767B2, “3-heteroaryl pyrrolidine and piperidine orexin receptor agonists” (Merck Sharp & Dohme LLC, priority 2020, dated 2026).

In this assay the target is T1, human OX2R (Homo sapiens, UniProt O43614).
T1 construct: expressed in transfected cells; host or cells: CHO (Chinese hamster ovary) cells, grown under G418 selection
T1 sequence (O43614 1-444): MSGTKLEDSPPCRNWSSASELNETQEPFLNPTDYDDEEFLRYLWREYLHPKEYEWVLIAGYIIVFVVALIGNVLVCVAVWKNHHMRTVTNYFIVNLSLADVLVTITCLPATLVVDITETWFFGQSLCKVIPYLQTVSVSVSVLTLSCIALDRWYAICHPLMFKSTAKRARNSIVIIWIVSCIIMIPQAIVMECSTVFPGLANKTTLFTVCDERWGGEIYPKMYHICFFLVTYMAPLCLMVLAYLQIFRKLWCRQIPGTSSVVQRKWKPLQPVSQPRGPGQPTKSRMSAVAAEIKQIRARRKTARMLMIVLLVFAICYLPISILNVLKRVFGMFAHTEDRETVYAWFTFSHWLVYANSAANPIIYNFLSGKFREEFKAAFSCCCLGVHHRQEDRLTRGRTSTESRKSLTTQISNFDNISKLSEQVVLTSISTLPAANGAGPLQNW
Kind of assay: IP-One (IPOne) orexin receptor agonist assay in CHO cells expressing human OX2R. The note with it: for EC50: CHO cells expressing human OX2R, IP-One IP-1 detection, 2 hours incubation, four parameter logistic fit, read-out: OX2R Potency, EC50; for % of reference agonist maximal effect: human OX2R, percentage of sample raw value/mean max effect (reference compound at 1 uM with 100% activity). The class given is cell-based. The text has this: The utility of the compounds in accordance with the present invention as orexin receptor OX1R and/or OX2R agonists may be readily determined without undue experimentation by methodology well known in the art. Both the OX1R and/or OX2R G-coupled protein receptors (GPCRs) couple through the Gαq signaling pathway, which ultimately promotes calcium mobilization via inositol triphosphate (IP3) production. The half-life of IP-3 is relatively short, being rapidly metabolized to inositol monophosphate (IP-1), which can be readily detected using a commercially available assay kit (IP-One; Cisbio; cat #621PAPEC) coupled with a cell line expressing the target receptor(s) of interest. The utility of the compounds in accordance with the present invention as orexin receptor OX1R and/or OX2R agonists may be determined utilizing this assay.
In a typical experiment, the OX1 and OX2 receptor agonist activity is determined in accordance with the following general experimental method. Chinese hamster ovary (CHO) cells expressing human OX1R and/or the human OX2R were grown in Iscove's modified DMEM containing glutaMAX™, 1% G418, 100 U/mL penicillin, 100 μg/mL streptomycin and 10% heat-inactivated qualified fetal bovine serum (FBS). The OX2R cells were seeded at 10,000 cells/well/50 μL and the OX1R cells were seeded at 20,000 cells/well/50 μL into 384-well white tissue culture plates (Greiner; cat #781080). All cell/media reagents were from GIBCO-Invitrogen Corp. The seeded cell plate(s) were incubated at 37° C. with 5% CO2 and 85% humidity for 20-24 hours. On the day of the assay, assay-ready compound plates were prepared using an acoustic liquid handler (ECHO; Labcyte), which dispensed sufficient volume of test compound stock (10 mM in DMSO) or 100% DMSO to prepare 10 point, ½-log dilutions in a final volume of 202.5 nL/well in all test wells of a 384-well diamond plate (Labcyte). Following completion of assay-ready plates, importantly, the next three steps were performed with minimal delay: 1) 20 μl of 1× stimulation buffer was added to the compound plate using a Multidrop Combi (small cassette, Thermo Fisher Scientific cat #24073290); 2) culture medium was removed from the cell plate using the Bluewasher plate washer (gentle spin; BlueCatBio); 3) 14 μl of compound/stimulation buffer mixture was added to the cell plate using a Bravo liquid handler (Agilent) prior to incubating cell plates at 37° C. with 5% CO2 and 85% humidity for 1 or 2 hours (OX1R and OX2R, respectively). During this incubation, IP-one detection reagents were prepared (38:1:1 lysis buffer:D2:AB-cryptate reagents). Six μL of mixed detection reagents were added to the cell plate using a Multidrop Combi (small cassette, Thermo Fisher Scientific cat #24073290) and incubated 60 minutes at room temperature in the dark. Fluorescence signal was detected using an Envision plate reader (Perkin Elmer) [LANCE/DELFIA Dual Enh (Em: APC 665; Ex: Cy5 620)].
For each compound, data were fit to a four parameter logistic fit (ActivityBase software) and the EC50 was reported as the inflection point of the resulting curve. Percent effect for each test compound was determined as the percentage of sample raw value/mean max effect, where the mean max effect was derived from the mean raw value of 32 control wells per assay plate (using Orexin A (cat #003-30) at 1 μM for human OX1R and a reference compound at 1 uM with 100% activity previously established by comparison to Orexin A for human OX2R). The intrinsic orexin receptor agonist activity of a compound which may be used in the present invention may be determined by these assays.

The structures appear in SMILES notation.

For `CN1C[C@H](COC(=O)N2CCC[C@H](c3cc[nH]n3)[C@@H]2COC2CCC(c3ccccc3)CC2)OCC1=O` (stereo partly drawn) [Example 94, ((R)-4-methyl-5-oxomorpholin-2-yl)methyl (CIS)-2-((((CIS)-4-phenylcyclohexyl)oxy)methyl)-3-(1H-pyrazol-3-yl)piperidine-1-carboxylate], the EC50 stood at 6640 nM and the “% of reference agonist maximal effect” value came out at 93.5%.

As for `COC(=O)COC(=O)N1CCC[C@H](c2cc[nH]n2)[C@@H]1CO[C@H]1CC[C@@H](c2ccccc2)CC1` (relative stereo) [Example 98, 2-methoxy-2-oxoethyl (CIS)-2-((((CIS)-4-phenylcyclohexyl)oxy)methyl)-3-(1H-pyrazol-3-yl)piperidine-1-carboxylate], the concentration for a half-maximal effect (EC50) worked out at 1020 nM and the “% of reference agonist maximal effect” value worked out at 98.7%.

Take `CC(C)(O)C(=O)N1CCC[C@H](c2cc[nH]n2)[C@@H]1CO[C@H]1CC[C@@H](c2ccccc2)CC1` (relative stereo) [Example 77, 2-hydroxy-2-methyl-1-((CIS)-2-((((CIS)-4-phenylcyclohexyl)oxy)methyl)-3-(1H-pyrazol-3-yl)piperidin-1-yl)propan-1-one]: the EC50 was 4340 nM and the “% of reference agonist maximal effect” value is on record as 96.1%.

As to `COC(=O)N1CCC[C@@H](c2n[nH]cc2Cl)[C@H]1CO[C@H]1CC[C@@H](c2ccccc2)CC1` (single isomer, unassigned) [Example 46], the EC50 is > 10000 nM and the “% of reference agonist maximal effect” value was determined as 0%.

Turning to `CC(C)[C@H]1CC[C@@H](OC[C@H]2[C@@H](c3cc[nH]n3)CCCN2C(=O)C2CCCC2)CC1` (relative stereo) [Example 83, cyclopentyl((CIS)-2-((((CIS)-4-isopropylcyclohexyl)oxy)methyl)-3-(1H-pyrazol-3-yl)piperidin-1-yl)methanone], the EC50 was found to be 7080 nM and the “% of reference agonist maximal effect” value is listed as 73.9%.

Take `COC(=O)N1CCC[C@H](c2n[nH]cc2C)[C@@H]1COC1CCN(c2ncccn2)CC1` (relative stereo) [Example 6, Methyl (CIS)-3-(4-methyl-1H-pyrazol-3-yl)-2-(((1-(pyrimidin-2-yl)piperidin-4-yl)oxy)methyl)piperidine-1-carboxylate]: the EC50 stood at 1270 nM and the “% of reference agonist maximal effect” value is 96.6%.

On to `COC(C)(C)C(=O)N1CCC[C@H](c2cc[nH]n2)[C@@H]1CO[C@H]1CC[C@@H](c2ccccc2)CC1` (relative stereo) [Example 87, 2-methoxy-2-methyl-1-((CIS)-2-((((CIS)-4-phenylcyclohexyl)oxy)methyl)-3-(1H-pyrazol-3-yl)piperidin-1-yl)propan-1-one], for which the EC50 turned out to be 8810 nM and the “% of reference agonist maximal effect” value is on record as 78.7%.

On to `O=C(N1CCC[C@H](c2cc[nH]n2)[C@@H]1CO[C@H]1CC[C@@H](c2ccccc2)CC1)C1(O)CC1` (relative stereo) [Example 78, (1-hydroxycyclopropyl)((CIS)-2-((((CIS)-4-phenylcyclohexyl)oxy)methyl)-3-(1H-pyrazol-3-yl)piperidin-1-yl)methanone], for which the EC50 worked out at 4430 nM and the “% of reference agonist maximal effect” value is recorded as 92.6%.

For `COC(=O)N1CCC[C@H](c2n[nH]cc2C(C)C)[C@@H]1CO[C@H]1CC[C@@H](c2ccccc2)CC1` (single isomer, unassigned) [Example 49], the EC50 worked out at 795 nM and the “% of reference agonist maximal effect” value turned out to be 99.0%.

For `CC#CCCOC(=O)N1CCC[C@H](c2cc[nH]n2)[C@@H]1CO[C@H]1CC[C@@H](c2ccccc2)CC1` (relative stereo) [Example 106, pent-3-yn-1-yl (CIS)-2-((((CIS)-4-phenylcyclohexyl)oxy)methyl)-3-(1H-pyrazol-3-yl)piperidine-1-carboxylate], the EC50 was found to be 5080 nM and the “% of reference agonist maximal effect” value stood at 71.4%.

In the case of `COC(=O)N1CCC[C@@H](c2csc(O)n2)[C@H]1CO[C@H]1CC[C@@H](c2ccccc2)CC1` (relative stereo) [Example 65], the EC50 was found to be 174 nM and the “% of reference agonist maximal effect” value was found to be 98.1%.

Consider `CC(C)[C@H]1CC[C@@H](OC[C@H]2[C@@H](c3cc[nH]n3)CCCN2C(=O)NCc2ccccc2)CC1` (relative stereo) [Example 122, (CIS)-N-benzyl-2-((((CIS)-4-isopropylcyclohexyl)oxy)methyl)-3-(1H-pyrazol-3-yl)piperidine-1-carboxamide], for which the EC50 came out at 2420 nM and the “% of reference agonist maximal effect” value is on record as 93.6%.

On to `CC(=O)COC(=O)N1CCC[C@H](c2cc[nH]n2)[C@@H]1CO[C@H]1CC[C@@H](c2ccccc2)CC1` (relative stereo) [Example 97, 2-oxopropyl (CIS)-2-((((CIS)-4-phenylcyclohexyl)oxy)methyl)-3-(1H-pyrazol-3-yl)piperidine-1-carboxylate], for which the EC50 worked out at 892 nM and the “% of reference agonist maximal effect” value is 99.1%.

Turning to `COC(=O)N1CCC[C@H](c2ncn[nH]2)[C@@H]1CO[C@H]1CC[C@@H](c2ccccc2)CC1` (relative stereo) [Example 26, methyl (CIS)-2-((((CIS)-4-phenylcyclohexyl)oxy)methyl)-3-(1H-1,2,4-triazol-5-yl)piperidine-1-carboxylate], the EC50 stood at 2430 nM and the “% of reference agonist maximal effect” value turned out to be 83.6%.

Consider `CCNC(=O)N1CCC[C@H](c2cc[nH]n2)[C@@H]1CO[C@H]1CC[C@@H](c2ccccc2)CC1` (single isomer, unassigned) [Example 18, (CIS)-N-ethyl-2-((((CIS)-4-phenylcyclohexyl)oxy)methyl)-3-(1H-pyrazol-3-yl)piperidine-1-carboxamide], for which the concentration for a half-maximal effect (EC50) is 54.7 nM and the “% of reference agonist maximal effect” value is 98.8%.

Regarding `COC(=O)N1CCCC(c2nc(O)sc2Cl)C1COC1CCC(c2ccccc2)CC1` (single isomer, unassigned) [Example 67, Methyl 3-(5-chloro-2-hydroxythiazol-4-yl)-2-(((4-phenylcyclohexyl)oxy)methyl)piperidine-1-carboxylate], the EC50 worked out at 227 nM and the “% of reference agonist maximal effect” value is reported as 99.9%.

`CCNC(=O)N1CCCC(c2[nH]ncc2C)C1COC1CCC(C(C)C)CC1` (single isomer, unassigned) [Example 60, N-ethyl-2-(((4-isopropylcyclohexyl)oxy)methyl)-3-(4-methyl-1H-pyrazol-5-yl)piperidine-1-carboxamide]: the EC50 came to 56.3 nM and the “% of reference agonist maximal effect” value was 100%.

For the molecule `COC(=O)N1CCC[C@H](c2n[nH]cc2Cl)[C@@H]1CO[C@H]1CC[C@@H](c2ccccc2Cl)CC1` (racemic) [Example 47, Methyl cis-3-(4-chloro-1H-pyrazol-3-yl)-2-((((CIS)-4-(2-chlorophenyl)cyclohexyl)oxy)methyl)piperidine-1-carboxylate], the EC50 turned out to be 357 nM and the “% of reference agonist maximal effect” value is 99.2%.
